Laboratory results as given in patent US20230009626A1 (ICHNOS SCIENCES S.A., priority 2018, published 2023).
Structures can show the parent of a compound that is named as a salt.

Target: HPK1 (MAP4K1) (Homo sapiens, UniProt Q92918)
Experiment: FRET Assay for HPK1 (MAP4K1): one step binding assay, displacement of labeled tracer
Settings: for inhibition at 1 µM: 1 μM compound; for inhibition at 1 µM / inhibition at 10 µM: FRET ratio 665/620, percent of control; for inhibition at 10 µM: 10 μM compound; for IC50: dose response curve, nonlinear regression
From the text: FRET Assay for HPK1 (MAP4K1):
This is a one step binding assay based on the binding and displacement of the labeled tracer, where compound addition is followed by addition of the anti-GST tagged europium (Eu) as the donor and Alexa Fluor-labeled tracer as the acceptor. Simultaneous binding of both the tracer and GST-antibody to the kinase domain of HPK1 results in a high degree of FRET (fluorescence resonance energy transfer) from the anti-GST tagged europium (Eu) fluorophore to the Alexa Fluor® 647 fluorophore on the kinase tracer and this signal is reduced in presence of the inhibitor that can be measured.
Test compounds or reference compounds such as Sunitinib (Sigma) were dissolved in dimethylsulfoxide (DMSO) to prepare 10.0 mM stock solutions and diluted to the desired concentration. The final concentration of DMSO in the reaction was 3% (v/v). The assay mixture was prepared by mixing 4 nM of the Eu-Anti-GST Antibody and 10 nM MAP4K-1 enzyme in the Kinase buffer containing 50mM HEPES (pH 7.5), 10 mM MgCl2, 1 mM EGTA, 0.01% Brij-35 with or without the desired concentration of the compound. The reaction was incubated on ice for 15 mins. The pre-incubation step was followed by addition of the 20 nM Kinase Tracer 222 into the reaction mixture. After shaking for 5 min the reaction was further incubated for 1 hour at room temperature and this was kept at 4° C. and read on ARTEMIS reader as per the kit instructions (Thermo). […] The activity was calculated as percent of control reaction. IC50 values were calculated from dose response curve by nonlinear regression analysis using GraphPad Prism software.
Percentage inhibition at concentrations of 1.0 μM and 10.0 μM are given in the table along with IC50 (nM) details for selected examples.

Sequence of HPK1 (MAP4K1) (Q92918 whole entry): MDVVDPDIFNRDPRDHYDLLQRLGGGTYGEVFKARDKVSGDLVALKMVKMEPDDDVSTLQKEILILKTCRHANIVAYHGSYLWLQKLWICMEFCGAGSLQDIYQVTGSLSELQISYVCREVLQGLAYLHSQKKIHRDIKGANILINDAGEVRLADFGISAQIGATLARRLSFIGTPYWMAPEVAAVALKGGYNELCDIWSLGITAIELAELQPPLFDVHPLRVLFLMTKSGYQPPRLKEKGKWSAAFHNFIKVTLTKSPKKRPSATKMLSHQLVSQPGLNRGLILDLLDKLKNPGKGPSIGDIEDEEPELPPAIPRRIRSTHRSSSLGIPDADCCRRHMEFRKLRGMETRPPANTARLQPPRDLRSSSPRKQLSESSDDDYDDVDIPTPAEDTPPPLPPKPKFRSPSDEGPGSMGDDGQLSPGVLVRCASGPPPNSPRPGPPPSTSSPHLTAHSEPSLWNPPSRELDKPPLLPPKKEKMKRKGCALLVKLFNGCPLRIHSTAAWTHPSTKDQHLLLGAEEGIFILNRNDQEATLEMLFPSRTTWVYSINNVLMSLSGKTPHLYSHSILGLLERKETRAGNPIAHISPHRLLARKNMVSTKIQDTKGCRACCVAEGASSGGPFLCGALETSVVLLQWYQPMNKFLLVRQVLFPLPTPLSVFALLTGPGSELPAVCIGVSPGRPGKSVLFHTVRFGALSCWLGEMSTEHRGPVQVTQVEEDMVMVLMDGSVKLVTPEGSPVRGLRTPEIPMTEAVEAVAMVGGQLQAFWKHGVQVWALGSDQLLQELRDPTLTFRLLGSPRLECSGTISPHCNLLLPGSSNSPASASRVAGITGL

Compound	inhibition at 1 µM [%]	inhibition at 10 µM [%]	IC50 [nM]
C/C(Nc1cnn(C)c1)=C1/C(=O)Nc2cnc(-c3c(C)noc3C)cc21 [Example 55, (Z)-5-(3,5dimethylisoxazol-4-yl)-3-(1-((1-methyl-1H-pyrazol-4-yl)amino)ethylidene)-1H-pyrrolo[2,3-c]pyridin-2(3H)-one]	78	90	50 to 100
COc1cccc(F)c1-c1cnc2c(c1)/C(=C(\C)Nc1cnn(C)c1)C(=O)N2 [Example 56, (Z)-5-(2-Fluoro-6-methoxyphenyl)-3-(1-((1-methyl-1H-pyrazol-4-yl)amino)ethylidene)-1H-pyrrolo[2,3-b]pyridin-2(3H)-one]	66.8	75.2	100 to 500
C/C(Nc1ccn(C)n1)=C1/C(=O)Nc2ccc(-c3cnccc3C)nc21 [Example 63, (Z)-3-(1-((1-Methyl-1H-pyrazol-34yl)amino)ethylidene)-5-(4-methylpyridin-3-yl)-1H-pyrrolo[3,2-b]pyridin-2(3H)-one]	89.8	97.1	< 50
C/C(Nc1cn[nH]c1)=C1/C(=O)Nc2cnc(-c3cnccc3C)cc21 [Example 64, (Z)-3-(1-((1H-Pyrazol-4-yl)amino)ethylidene)-5-(4-methylpyridin-3-yl)-1H-pyrrolo[2,3-c]pyridin-2(3H)-one]	83.3	91.2	< 50
COc1cccc(F)c1-c1cc2c(cn1)NC(=O)/C2=C(/C)Nc1cnn(C(F)F)c1 [Example 65, (Z)-3-(1-((1-(Difluoromethyl)-1H-pyrazol-4-yl)amino)ethylidene)-5-(2-fluoro-6-methoxyphenyl)-1H-pyrrolo[2,3-c]pyridin-2(3H)-one]	79.7	75.5	50 to 100
C/C(Nc1cnn(C(F)F)c1)=C1/C(=O)Nc2cnc(-c3cnccc3C)cc21 [Example 66, (Z)-3-(1-((1-(Difluoromethyl)-1H-pyrazol-4-yl)amino)ethylidene)-5-(4-methylpyridin-3-yl)-1H-pyrrolo[2,3-c]pyridin-2(3H)-one]	74.1	76.2	< 50
C/C(Nc1cnn(CC2CC2)c1)=C1/C(=O)Nc2cnc(-c3cnccc3C)cc21 [Example 67, (Z)-3-(1-((1-(Cyclopropylmethyl)-1H-pyrazol-4-yl)amino)ethylidene)-5-(4-methylpyridin-3-yl)-1H-pyrrolo[2,3-c]pyridin-2(3H)-one]	74	71.4	< 50
COc1ccncc1-c1cc2c(cn1)NC(=O)/C2=C(/C)Nc1ccn(C)n1 [Example 68, (Z)-5-(4-Methoxypyridin-3-yl)-3-(1-((1-methyl-1H-pyrazol-3-yl)amino)ethylidene)-1H-pyrrolo[2,3-c]pyridin-2(3H)-one]	77.5	75.3	< 50
C/C(Nc1cnn(CC(F)(F)F)c1)=C1/C(=O)Nc2cnc(-c3cnccc3C)cc21 [Example 69, (Z)-5-(4-Methylpyridin-3-yl)-3-(1-((1-(2,2,2-trifluoroethyl)-1H-pyrazol-4-yl)amino)ethylidene)-1H-pyrrolo[2,3-c]pyridin-2(3H)-one]	67	65.5	
CC(=O)N1CCN(c2ccc(N/C(C)=C3\C(=O)Nc4cnc(-c5cnccc5C)cc43)cn2)CC1 [Example 70, (Z)-3-(1-((6-(4-Acetylpiperazin-1-yl)pyridin-3-yl)amino)ethylidene)-5-(4-methylpyridin-3-yl)-1H-pyrrolo[2,3-c]pyridin-2(3H)-one]	69.5	69.9	
COc1cccc(F)c1-c1cc2c(cc1C#N)NC(=O)/C2=C(/C)Nc1cnn(C)c1 [Example 71, (Z)-5-(2-Fluoro-6-methoxyphenyl)-3-(1-((1-methyl-1H-pyrazol-4-yl)amino)ethylidene)-2-oxoindoline-6-carbonitrile]	71.7	72.7	< 50
COc1cccc(F)c1-c1cc2c(cn1)NC(=O)/C2=C(/C)NC1CCNCC1 [Example 72, (Z)-5-(2-Fluoro-6-methoxyphenyl)-3-(1-(piperidin-4-ylamino)ethylidene)-1H-pyrrolo[2,3-c]pyridin-2(3H)-one trihydrochloride]	39.8	68.6	

Now from value to compound:

inhibition at 1 µM [%]	inhibition at 10 µM [%]	IC50 [nM]	Compound
87.1	85.4	< 50	C/C(Nc1cnn(C(C)(C)C#N)c1)=C1/C(=O)Nc2cnc(-c3cnccc3C)cc21 [Example 53, (Z)-2-Methyl-2-(4-((1-(5-(4-methylpyridin-3-yl)-2-oxo-1H-pyrrolo[2,3-c]pyridin-3(2H)-ylidene)ethyl)amino)-1H-pyrazol-1-yl)propanenitrile]
88.5	86.1	< 50	C/C(Nc1ccn(C)n1)=C1/C(=O)Nc2cnc(-c3cnccc3C)cc21 [Example 54, (Z)-3-(1-((1-methyl-1H-pyrazol-3-yl)amino)ethylidene)-5-(4-methylpyridin-3-yl)-1H-pyrrolo[2,3-c]pyridin-2(3H)-one]
80.9	94.1	< 50	C/C(Nc1cnn(C2CCOCC2)c1)=C1/C(=O)Nc2cnc(-c3cnccc3C)cc21 [Example 57, (Z)-5-(4-Methylpyridin-3-yl)-3-(1-((1-(tetrahydro-2H-pyran-4-yl)-1H-pyrazol-4-yl)amino)ethylidene)-1H-pyrrolo[2,3-c]pyridin-2(3H)-one]
71	72.7	< 50	C/C(Nc1ccc(N2CCNCC2)cc1)=C1/C(=O)Nc2cnc(-c3cnccc3C)cc21 [Example 58, (Z)-5-(4-Methylpyridin-3-yl)-3-(1-((4-(piperazin-1-yl)phenyl)amino)ethylidene)-1H-pyrrolo[2,3-c]pyridin-2(3H)-one]
78	78.2	< 50	C/C(Nc1ccc(N2CCOCC2)cc1)=C1/C(=O)Nc2cnc(-c3cnccc3C)cc21 [Example 59, (Z)-5-(4-Methylpyridin-3-yl)-3-(1-((4-morpholinophenyl)amino)ethylidene)-1H-pyrrolo[2,3-c]pyridin-2(3H)-one]
74	72.7	< 50	COCCn1cc(N/C(C)=C2\C(=O)Nc3cnc(-c4cnccc4C)cc32)cn1 [Example 60, (Z)-3-(1-((1-(2-Methoxyethyl)-1H-pyrazol-4-yl)amino)ethylidene)-5-(4-methylpyridin-3-yl)-1H-pyrrolo[2,3-c]pyridin-2(3H)-one]
71.6	81.3	< 50	C/C(Nc1cnn(CC(F)F)c1)=C1/C(=O)Nc2cnc(-c3cnccc3C)cc21 [Example 61, (Z)-3-(1-((1-(2,2-Difluoroethyl)-1H-pyrazol 4-yl)amino)ethylidene)-5-(4-methylpyridin-3-yl)-1H pyrrolo[2,3-c]pyridin-2(3H)-one]
80.3	94.7	< 50	C/C(Nc1cnn(C)c1)=C1/C(=O)Nc2ccc(-c3cnccc3C)nc21 [Example 62, (Z)-3-(1-((1-Methyl-1H-pyrazol-4-yl)amino)ethylidene)-5-(4-methylpyridin-3-yl)-1H-pyrrolo[3,2-b]pyridin-2(3H)-one]
